In ChEMBL document CHEMBL1821574, “Structure-activity relationships of 4-position diamine quinoline methanols as intermittent preventative treatment (IPT) against Plasmodium falciparum” (J Med Chem, 2011):
In brackets after ≈: the same amount, converted by molar mass.

What was measured:
Plasmodium falciparum [1] = test: Antimalarial activity against chloroquine-resistant and mefloquine-sensitive Plasmodium falciparum W2 assessed as inhibition of [3H]hypoxanthine incorporation by liquid scintillation spectrometry; format: functional
Plasmodium falciparum [2] = test: Antimalarial activity against chloroquine-sensitive and mefloquine-resistant Plasmodium falciparum D6 by SYBR Green I-based fluorescence assay; format: functional
Plasmodium falciparum [3] = test: Antimalarial activity against chloroquine, mefloquine and pyrimethamine-resistant Plasmodium falciparum TM91C235 assessed as inhibition of [3H]hypoxanthine incorporation by liquid scintillation spectrometry; format: functional
Plasmodium falciparum [4] = test: Antimalarial activity against chloroquine, mefloquine and pyrimethamine-resistant Plasmodium falciparum TM91C235 by SYBR Green I-based fluorescence assay; format: functional
Plasmodium falciparum [5] = test: Antimalarial activity against chloroquine, mefloquine and pyrimethamine-resistant Plasmodium falciparum TM90C2A assessed as inhibition of [3H]hypoxanthine incorporation by liquid scintillation spectrometry; format: functional
Plasmodium falciparum [6] = test: Antimalarial activity against chloroquine-sensitive and mefloquine-resistant Plasmodium falciparum D6 assessed as inhibition of [3H]hypoxanthine incorporation by liquid scintillation spectrometry; format: functional
[7] = Apparent permeability from apical to basolateral side of dog MDCK cells at 5 uM after 2 hrs by LC/MS/MS analysis; format: ADME, cell-based, Canis lupus familiaris

Structure (SMILES) | IC90 (Plasmodium falciparum [1]) | IC90 (Plasmodium falciparum [2]) | IC90 (Plasmodium falciparum [3]) | IC90 (Plasmodium falciparum [4]) | IC90 (Plasmodium falciparum [5]) | IC90 (Plasmodium falciparum [6]) | Papp A→B at 2 h, 5 µM [7]
OC(CNCCNCc1ccncc1)c1cc(C(F)(F)F)nc2c(C(F)(F)F)cccc12 (stereo not drawn) | 0.47 µg/mL (≈ 1.03 µM) | 0.38 µg/mL (≈ 0.829 µM) | > 0.5 µg/mL | > 0.5 µg/mL | > 0.5 µg/mL | 0.38 µg/mL (≈ 0.829 µM) | 
OC(CNCCN1CCCC1)c1cc(C(F)(F)F)nc2c(C(F)(F)F)cccc12 (stereo not drawn) | 0.109 µg/mL (≈ 0.259 µM) |  | 0.556 µg/mL (≈ 1.32 µM) |  | 0.835 µg/mL (≈ 1.98 µM) | 0.311 µg/mL (≈ 0.738 µM) | 
CC1CCN(CC(C)(C)NCC(O)c2cc(C(F)(F)F)nc3c(C(F)(F)F)cccc23)CC1 (stereo not drawn) | 0.007 µg/mL (≈ 0.0147 µM) | 0.017 µg/mL (≈ 0.0356 µM) | 0.061 µg/mL (≈ 0.128 µM) | 0.034 µg/mL (≈ 0.0712 µM) | 0.066 µg/mL (≈ 0.138 µM) | 0.024 µg/mL (≈ 0.0503 µM) | 44.2 ×10⁻⁶ cm/s
CC(CCN1CCOCC1)NCC(O)c1cc(C(F)(F)F)nc2c(C(F)(F)F)cccc12 (stereo not drawn) | 0.011 µg/mL (≈ 0.0236 µM) |  | 0.055 µg/mL (≈ 0.118 µM) |  | 0.095 µg/mL (≈ 0.204 µM) | 0.036 µg/mL (≈ 0.0773 µM) | 
OC(CNCC1CCNC1)c1cc(C(F)(F)F)nc2c(C(F)(F)F)cccc12 (stereo not drawn) | 2.04 µg/mL (≈ 5.01 µM) |  | 4.27 µg/mL (≈ 10.5 µM) |  | 4.37 µg/mL (≈ 10.7 µM) | 3.1 µg/mL (≈ 7.61 µM) | 
OC(CNC[C@]12CCC[C@H]1CNC2)c1cc(C(F)(F)F)nc2c(C(F)(F)F)cccc12 (stereo partly drawn) | 0.852 µg/mL (≈ 1.9 µM) |  | 0.419 µg/mL (≈ 0.936 µM) |  | 0.429 µg/mL (≈ 0.959 µM) | 0.159 µg/mL (≈ 0.355 µM) | 
OC(CNC[C@@]12CCC[C@@H]1CNC2)c1cc(C(F)(F)F)nc2c(C(F)(F)F)cccc12 (stereo partly drawn) | 0.885 µg/mL (≈ 1.98 µM) |  | 0.433 µg/mL (≈ 0.968 µM) |  | 0.358 µg/mL (≈ 0.8 µM) | 0.165 µg/mL (≈ 0.369 µM) | 
CC(CN1CCCC1)NCC(O)c1cc(C(F)(F)F)nc2c(C(F)(F)F)cccc12 (stereo not drawn) | 0.011 µg/mL (≈ 0.0253 µM) | 0.008 µg/mL (≈ 0.0184 µM) | 0.079 µg/mL (≈ 0.181 µM) | 0.055 µg/mL (≈ 0.126 µM) | 0.071 µg/mL (≈ 0.163 µM) | 0.039 µg/mL (≈ 0.0896 µM) | 33.1 ×10⁻⁶ cm/s
CC1CC(C)CN(CCNCC(O)c2cc(C(F)(F)F)nc3c(C(F)(F)F)cccc23)C1 (stereo not drawn) | < 0.001 µg/mL | 0.01 µg/mL (≈ 0.0216 µM) | 0.01 µg/mL (≈ 0.0216 µM) | 0.056 µg/mL (≈ 0.121 µM) | 0.011 µg/mL (≈ 0.0237 µM) | 0.005 µg/mL (≈ 0.0108 µM) | 32.7 ×10⁻⁶ cm/s
CN1CCCC(C(NCC(O)c2cc(C(F)(F)F)nc3c(C(F)(F)F)cccc23)C2CCCN(C)C2)C1 (stereo not drawn) | 0.28 µg/mL (≈ 0.526 µM) |  | 0.903 µg/mL (≈ 1.7 µM) |  | 0.983 µg/mL (≈ 1.85 µM) | 0.746 µg/mL (≈ 1.4 µM) | 
CN(C)CC(C)(C)NCC(O)c1cc(C(F)(F)F)nc2c(C(F)(F)F)cccc12 (stereo not drawn) | 0.03 µg/mL (≈ 0.0709 µM) |  | 0.142 µg/mL (≈ 0.335 µM) |  | 0.165 µg/mL (≈ 0.39 µM) | 0.098 µg/mL (≈ 0.231 µM) | 
O=C1NCCC1N(CCNCC(O)c1cc(C(F)(F)F)nc2c(C(F)(F)F)cccc12)C1CCNC1=O (stereo not drawn) | 0.487 µg/mL (≈ 0.913 µM) |  | > 0.5 µg/mL |  | > 0.5 µg/mL | > 0.5 µg/mL | 
NCCCNCCNCC(O)c1cc(C(F)(F)F)nc2c(C(F)(F)F)cccc12 (stereo not drawn) | > 0.5 µg/mL |  | > 0.5 µg/mL |  | > 0.5 µg/mL | 0.38 µg/mL (≈ 0.895 µM) | 
